Measured values as given in patent US10597367B2, “Metabotropic glutamate receptor negative allosteric modulators (NAMs) and uses thereof” (Sanford Burnham Prebys Medical Discovery Institute, priority 2014, dated 2020).
Where two headings read alike, the source gives them in different places.

Assays:
Male Wistar rats = assay: Forced Swim Test (FST); assay type: in vivo; settings: rat, FIG. 1
Experimental: Male Wistar rats (Charles River, Hollister, Calif.), weighing 175-225 g (Charles River, Portage, Ind.) used for the forced swim test study were housed in pairs with food and water available ad libitum, except during testing, in a temperature and humidity controlled vivarium (21° C.). Rats were maintained on a 12-hour reverse light-dark cycle with lights on at 6 pm. All experimental procedures occurred during the dark cycle, were approved by the Institutional Animal Care and Use Committee of the Scripps Research Institute, and were in accordance with the Association for the Assessment and Accreditation of Laboratory Animal Care (AAALAC) guidelines. […]
After the habituation swim and 24 hours prior to the test swim, rats were administered one of three doses of a mGlu2/3 NAM, with doses and pretreatment time based on maximal brain penetration as determined by PK studies for each compound. Blood and brain tissue were collected immediately after the FST and the PK properties of each compound were analyzed together with FST behavior. […] Twenty-four hours after their first exposure, the animals were again placed in the swim apparatus for 5 min, and behaviors were monitored from above by video camera for subsequent analysis. The rater of the behavioral patterns was blind with respect to the experimental conditions being scored. […]

R6/2 mice = settings: daily subcutaneous 20 mg/kg (MTD) beginning at 4 weeks; cited from earlier work
[1] = test system: wild-type and mGlu2 knockout mice; settings: acute 0.5, 1 or 5 mg/kg, i.p.; not in mGlu3 knockout mice; cited from earlier work
SOD1G93A mice = settings: continuous treatment 1 or 5 mg/kg/day; cited from earlier work
[2] = test system: cultured spinal cord astrocytes; settings: astrocytes from wild-type and mGlu2 knockout mice, not mGlu3 knockout; cited from earlier work
reserpine-treated rat = settings: cited from earlier work
mGlu3 receptor = mGlu3 receptor (Rattus norvegicus (Rat), UniProt P31422); assay: mGlu3 in vitro GIRK thallium flux assay; assay type: cell-based; settings: NAM; test compound incubated 2.5 min before EC80 glutamate; HEK-293 GIRK cells
mGlu3 receptor, sequence (P31422 23-879): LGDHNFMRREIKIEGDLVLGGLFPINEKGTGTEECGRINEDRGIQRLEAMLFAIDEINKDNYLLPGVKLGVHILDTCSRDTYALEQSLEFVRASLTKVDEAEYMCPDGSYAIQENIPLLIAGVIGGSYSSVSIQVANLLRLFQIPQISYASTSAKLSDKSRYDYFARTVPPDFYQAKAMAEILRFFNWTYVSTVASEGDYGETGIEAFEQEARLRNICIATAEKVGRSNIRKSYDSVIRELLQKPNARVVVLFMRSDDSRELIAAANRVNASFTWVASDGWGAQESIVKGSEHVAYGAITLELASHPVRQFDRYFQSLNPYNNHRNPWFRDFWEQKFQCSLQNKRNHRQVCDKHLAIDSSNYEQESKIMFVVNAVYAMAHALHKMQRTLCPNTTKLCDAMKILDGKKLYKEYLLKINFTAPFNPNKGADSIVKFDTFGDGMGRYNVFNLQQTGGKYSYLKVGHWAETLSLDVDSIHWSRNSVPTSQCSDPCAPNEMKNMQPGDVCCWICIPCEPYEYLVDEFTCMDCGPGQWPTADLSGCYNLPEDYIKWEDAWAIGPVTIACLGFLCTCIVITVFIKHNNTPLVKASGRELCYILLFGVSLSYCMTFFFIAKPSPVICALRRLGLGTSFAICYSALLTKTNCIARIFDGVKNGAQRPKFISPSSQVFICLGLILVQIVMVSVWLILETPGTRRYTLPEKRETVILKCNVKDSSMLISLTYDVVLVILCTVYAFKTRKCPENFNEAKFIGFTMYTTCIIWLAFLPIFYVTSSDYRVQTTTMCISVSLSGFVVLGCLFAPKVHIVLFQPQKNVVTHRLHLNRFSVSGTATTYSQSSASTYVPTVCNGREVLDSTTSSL
Experimental: All cell culture reagents were purchased from Invitrogen Corp. (Carlsbad, Calif.) unless otherwise noted. Compound activity at the group II (mGlu2 and mGlu3) mGlus was assessed using thallium flux through GIRK channels. Briefly, cells were plated into 384-well, black-walled, clear-bottomed poly-D-lysine-coated plates at a density of 15,000 cells/20 μL/well in DMEM containing 10% dialyzed FBS, 20 mM HEPES, and 100 units/mL penicillin/streptomycin (assay media). Plated cells were incubated overnight at 37° C. in the presence of 5% CO2. […] Cells were incubated for 1 h at room temperature, and the dye exchanged to assay buffer using an ELX405, leaving 20 μL/well. Test compounds were diluted to 2 times their final desired concentration in assay buffer (0.3% DMSO final concentration). […] Cell plates and compound plates were loaded onto a kinetic imaging plate reader (FDSS 6000 or 7000; Hamamatsu Corporation, Bridgewater, N.J.). Appropriate baseline readings were taken (10 images at 1 Hz; excitation, 470±20 nm; emission, 540±30 nm) and test compounds were added in a 20 μL volume and incubated for either 2.5 min or 60 min as indicated before the addition of 10 μL of thallium buffer with or without agonist. […] Data were analyzed using Excel (Microsoft Corp, Redmond, Wash.). […] Potencies were calculated from fits using a four-point parameter logistic equation. […]

mGlu2 receptor = mGlu2 receptor (Rattus norvegicus (Rat), UniProt P31421); assay: mGlu2 in vitro GIRK thallium flux assay; assay type: cell-based; settings: NAM, HEK-293 GIRK cells
mGlu2 receptor, sequence (P31421 19-872): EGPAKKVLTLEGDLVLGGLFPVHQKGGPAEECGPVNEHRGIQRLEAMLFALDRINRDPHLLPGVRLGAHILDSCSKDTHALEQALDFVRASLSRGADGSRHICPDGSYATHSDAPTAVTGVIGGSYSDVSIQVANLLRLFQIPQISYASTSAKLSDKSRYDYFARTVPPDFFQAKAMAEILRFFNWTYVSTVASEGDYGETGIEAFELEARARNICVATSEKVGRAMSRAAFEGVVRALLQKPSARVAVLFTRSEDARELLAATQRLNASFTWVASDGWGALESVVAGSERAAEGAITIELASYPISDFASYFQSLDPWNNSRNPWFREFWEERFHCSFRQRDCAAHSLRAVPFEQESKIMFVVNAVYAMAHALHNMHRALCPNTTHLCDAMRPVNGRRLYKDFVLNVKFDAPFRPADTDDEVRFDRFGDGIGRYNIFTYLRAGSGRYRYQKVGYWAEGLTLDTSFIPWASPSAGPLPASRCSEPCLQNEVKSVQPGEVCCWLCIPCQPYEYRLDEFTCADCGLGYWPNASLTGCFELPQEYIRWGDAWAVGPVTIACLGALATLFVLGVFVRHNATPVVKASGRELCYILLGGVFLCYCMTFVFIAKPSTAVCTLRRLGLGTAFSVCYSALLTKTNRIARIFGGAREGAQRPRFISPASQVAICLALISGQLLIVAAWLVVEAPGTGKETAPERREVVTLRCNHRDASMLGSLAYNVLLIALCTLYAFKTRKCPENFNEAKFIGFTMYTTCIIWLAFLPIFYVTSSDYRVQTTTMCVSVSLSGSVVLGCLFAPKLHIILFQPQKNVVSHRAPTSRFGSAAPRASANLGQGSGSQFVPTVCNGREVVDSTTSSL
Experimental: All cell culture reagents were purchased from Invitrogen Corp. (Carlsbad, Calif.) unless otherwise noted. Compound activity at the group II (mGlu2 and mGlu3) mGlus was assessed using thallium flux through GIRK channels. Briefly, cells were plated into 384-well, black-walled, clear-bottomed poly-D-lysine-coated plates at a density of 15,000 cells/20 μL/well in DMEM containing 10% dialyzed FBS, 20 mM HEPES, and 100 units/mL penicillin/streptomycin (assay media). Plated cells were incubated overnight at 37° C. in the presence of 5% CO2. […] Cells were incubated for 1 h at room temperature, and the dye exchanged to assay buffer using an ELX405, leaving 20 μL/well. Test compounds were diluted to 2 times their final desired concentration in assay buffer (0.3% DMSO final concentration). […] Cell plates and compound plates were loaded onto a kinetic imaging plate reader (FDSS 6000 or 7000; Hamamatsu Corporation, Bridgewater, N.J.). Appropriate baseline readings were taken (10 images at 1 Hz; excitation, 470±20 nm; emission, 540±30 nm) and test compounds were added in a 20 μL volume and incubated for either 2.5 min or 60 min as indicated before the addition of 10 μL of thallium buffer with or without agonist. After the addition of agonist, data were collected for approximately an additional 2.5 min. Data were analyzed using Excel (Microsoft Corp, Redmond, Wash.). The slope of the fluorescence increase beginning 5 s after thallium/agonist addition and ending 15 s after thallium/agonist addition was calculated, corrected to vehicle and maximal agonist control slope values, and plotted in using either XLfit (ID Business Solutions Ltd) or Prism software (GraphPad Software, San Diego, Calif.) to generate concentration-response curves. Potencies were calculated from fits using a four-point parameter logistic equation. For concentration-response curve experiments, compounds were serially diluted 1:3 into 10 point concentration response curves and were transferred to daughter plates using an Echo acoustic plate reformatter (Labcyte, Sunnyvale, Calif.). Test compounds were applied and followed by EC80 concentrations of glutamate.

N#Cc1cc(C2=Nc3ccc(Br)cc3NC(=O)C2)ccn1 [Example 182, 4-(8-Bromo-2-oxo-2,3-dihydro-1H-benzo[b][1,4]diazepin-4-yl)picolinonitrile]
antidepressant activity in the Forced Swim Test (immobility, swimming) (Male Wistar rats): antidepressant activity by decreasing immobility and increasing swimming

N[C@@]1(C(=O)O)CO[C@H]2[C@H](C(=O)O)[C@H]21 [LY379268]
phenotype in R6/2 mice (R6/2 mice): dramatically improves the phenotype | spinal cord GDNF levels [1]: enhanced spinal cord GDNF levels | neurological disability in SOD1G93A mice (SOD1G93A mice): beneficial effect on neurological disability | GDNF levels in astrocytes [2]: enhanced GDNF levels | reserpine-induced akinesia after systemic administration (reserpine-treated rat; 0.1, 1, 10 mg/kg ip): did not reverse reserpine-induced akinesia | locomotor activity after intracerebroventricular administration (reserpine-treated rat; 1, 5, 10, 20 nmol/2 μl icv, reserpine (5 mg/kg ip)-treated rat): dose-dependent increase in locomotor activity

Cc1cc2c(cc1C(F)(F)F)NC(=O)CC(c1cccc(Oc3ccccc3)c1)N2 (stereo not shown) [Example 177, 7-Methyl-4-(3-phenoxyphenyl)-8-(trifluoromethyl)-4,5-dihydro-1H-benzo[b][1,4]diazepin-2(3H)-one]
EC50 (mGlu3 receptor): > 10 µM | EC50 (mGlu2 receptor; test compound incubated 2.5 min before EC80 glutamate, read-out: mGlu2 EC50 (μM) (2.5 min)): > 10 µM | EC50 (mGlu2 receptor; read-out: mGlu2 EC50 (μM) (60 min), test compound incubated 60 min before EC80 glutamate): > 10 µM
